Consider 23 compounds from EP0889886B1, “NOVEL PHENANTHRIDINES SUBSTITUTED IN THE 6 POSITION” (ALTANA Pharma AG, priority 1996, dated 1997).

Structures can show the parent of a compound that is named as a salt.

The test system of this assay is PDE IV. Kind of assay: Inhibition of PDE IV activity (method of Bauer and Schwabe, adapted to microtiter plates). Particulars: Hemmung der PDE IV-Aktivität. It counts as biochemical.
Protocol: Hierbei erfolgt im ersten Schritt die PDE-Reaktion. In einem zweiten Schritt wird das entstandene 5'-Nukleotid durch eine 5'-Nukleotidase des Schlangengiftes von Crotalus Atrox zum ungeladenen Nukleosid gespalten. Im dritten Schritt wird das Nukleosid auf lonenaustauschsäulen vom verbliebenen geladenen Substrat getrennt. Die Säulen werden mit 2 ml 30 mM Ammoniumformiat (pH 6,0) direkt in Minivials eluiert, in die noch 2 ml Szintillatorflüssigkeit zur Zählung gegeben wird.
As to `CCOc1cc2c(cc1OCC)[C@H]1CCCC[C@H]1N=C2c1ccc(C(F)(F)F)cc1` (racemic) [Verbindung 17, (+/-)-cis-8,9-Diethoxy-7-(4-trifluormethylphenyl)-1,2,3,4,4a,10b-hexahydrophenanthridin], the “-log IC50” value worked out at 8.00.

Take `CCOc1cc2c(cc1OCC)[C@@H]1CCCC[C@@H]1N=C2c1ccc(C#N)cc1` (racemic) [Verbindung 18, (+/-)-cis-8,9-Diethoxy-6-(4-cyanophenyl)-1,2,3,4,4a,10b-hexahydrophenanthridin]: the “-log IC50” value was found to be 8.24.

As to `COc1ccc(C2=N[C@H]3CCCC[C@H]3c3cc(OC)c(OC)cc32)cc1OC` (racemic) [Verbindung 7, (+/-)-cis-8,9-Dimethoxy-6-(3,4-dimethoxyphenyl)-1,2,3,4,4a,10b-hexahydrophenanthridin], the “-log IC50” value was 6.44.

As for `CCOc1cc2c(cc1OC)C(c1ccc(S(C)(=O)=O)cc1)=N[C@H]1CCCC[C@@H]21` (racemic) [Verbindung 22, (+/-)-cis-9-Ethoxy-8-methoxy-6-(4-methansulfonylphenyl)-1,2,3,4,4a,10b-hexahydrophenanthridin], the “-log IC50” value is reported as 8.66.

In the case of `COc1cc2c(cc1OC1CCCC1)[C@H]1CCCC[C@H]1N=C2c1ccc(NS(=O)(=O)c2ccc(C)cc2)cc1` (racemic) [Verbindung 3, (+/-)-cis-9-Cyclopentyloxy-8-methoxy-6-(4-p-toluolsulfonamidophenyl)-1,2,3,4,4a,10bhexahydrophenanthridin], the “-log IC50” value came to 7.76.

In the case of `CCOc1cc2c(cc1OCC)[C@@H]1CCCC[C@@H]1N=C2c1ccc(-c2ccccc2)cc1` (racemic) [Verbindung 15, (+/-)-cis-6-Biphenyl-8,9-diethoxy-1,2,3,4,4a,10b-hexahydrophenanthridin], the “-log IC50” value worked out at 7.98.

As to `CCOc1cc2c(cc1OCC)[C@H]1CCCC[C@H]1N=C2c1ccc(F)cc1` (racemic) [Verbindung 16, (+/-)-cis-8,9-Diethoxy-6-(4-fluorphenyl)-1,2,3,4,4a,10b-hexahvdrophenanthridin], the “-log IC50” value is given as 7.93.

In the case of `CCOc1cc2c(cc1OCC)[C@@H]1CCCC[C@@H]1N=C2c1ccc(Cc2ccccc2)cc1` (racemic) [Verbindung 14, (+/-)-cis-6-(4-Benzylphenyl)-8,9-diethoxy-1,2,3,4,4a,10b-hexahydrophenanthridin], the “-log IC50” value is on record as 8.08.

For the compound `CCOc1cc2c(cc1OCC)[C@@H]1CCCC[C@@H]1N=C2c1ccc(O)nc1` (racemic) [Verbindung 27, (+/-)-cis-8,9-Diethoxy-6-(2-hydroxypyrid-5-yl)-1,2,3,4,4a,10b-hexahydrophenanthridin], the “-log IC50” value came to 6.66.

On to `CCOc1cc2c(cc1OCC)[C@@H]1CCCC[C@@H]1N=C2c1cccnc1.Cl` (racemic) [Verbindung 25, (+/-)-cis-8,9-Diethoxy-6-(pyrid-3-yl)-1,2,3,4,4a,10b-hexahydrophenanthridin-hydrochlorid], for which the “-log IC50” value was 7.96.

Turning to `COc1cc2c(cc1OC)[C@@H]1CCCC[C@@H]1N=C2c1ccc([N+](=O)[O-])cc1` (racemic) [Verbindung 5, (+/-)-cis-8,9-Dimethoxy-6-(4-nitrophenyl)-1,2,3,4,4a,10b-hexahydrophenanthridin], the “-log IC50” value turned out to be 7.22.

As to `CCOc1cc2c(cc1OC)C(c1ccc(NS(=O)(=O)c3ccc(C(=O)OC)cc3)cc1)=N[C@@H]1CCCC[C@H]21` (racemic) [Verbindung 23, (+/-)-cis-9-Ethoxy-8-methoxy-6-[4-(4-methoxycarbonylphenyl)sulfonamidophenyl]-1,2,3,4,4a,10b-hexahvdrophenanthridin Hydrochlorid], the “-log IC50” value stood at 8.70.

Regarding `COc1cc2c(cc1OC)C1C3CCC(CC3)C1N=C2c1ccc(NS(=O)(=O)c2ccc(C)cc2)cc1` (racemic) [Verbindung 12, (+/-)-trans-8,9-Dimethoxy-1,4-ethano-6-(4-p-toluolsulfonamidophenyl)-1,2,3,4,4a,10bhexahydrophenanthridin], the “-log IC50” value stood at 5.77.

As for `COc1cc2c(cc1OC)[C@@H]1CCCC[C@@H]1N=C2c1ccc(N(S(=O)(=O)c2ccc([N+](=O)[O-])cc2)S(=O)(=O)c2ccc([N+](=O)[O-])cc2)cc1` (racemic) [Verbindung 30, (+/-)-cis-8,9-Dimethoxy-6-[4-bis(p-nitrophenylsulfonyl)aminophenyl]-1,2,3,4,4a,10b-hexahydrophenanthridin], the “-log IC50” value is listed as 7.36.

For `COc1cc2c(cc1OC)[C@H]1CC(C)=C(C)C[C@H]1N=C2c1ccc(NS(=O)(=O)c2ccc(C)cc2)cc1` (racemic) [Verbindung 8, (+/-)-cis-8,9-Dimethoxy-2,3-dimethyl-6-(4-p-toluolsulfonamidophenyl)-1,4,4a,10b-tetrahydrophenanthridin], the “-log IC50” value came out at 6.91.

For the compound `COc1cc2c(cc1OC)[C@H]1CCCC[C@H]1N=C2c1ccc(NS(=O)(=O)c2ccc(C)cc2)cc1` (racemic) [Verbindung 1, (+/-)-cis-8,9-Dimethoxy-6-(4-p-toluolsulfonamidophenyl)-1,2,3,4,4a,10b-hexahydrophenanthridin], the “-log IC50” value was determined as 7.73.

`CCOc1cc2c(cc1OCC)[C@@H]1CCCC[C@@H]1N=C2c1ccc(O)cc1` (racemic) [Verbindung 37, (+/-)-cis-8,9-Diethoxy-6-(4-hydroxyphenyl)-1,2,3,4,4a,10b-hexahydrophenanthridin]: the “-log IC50” value is reported as 8.04.

As to `COc1cc2c(cc1OC)[C@H]1CCCC[C@H]1N=C2c1ccc(N(S(=O)(=O)c2ccc(C)cc2)S(=O)(=O)c2ccc(C)cc2)cc1` (racemic) [Verbindung 33, (+/-)-cis-8,9-Dimethoxy-6-[4-bis(p-toluolsulfonyl)aminophenyl]-1,2,3,4,4a,10b-hexahydrophenanthridin], the “-log IC50” value turned out to be 7.27.

As for `COc1cc2c(cc1OC)[C@@H]1CCCC[C@@H]1N=C2c1ccc(NC(C)=O)cc1` (racemic) [Verbindung 31, (+/-)-cis-8,9-Dimethoxy-6-(4-acetamidophenyl)-1,2,3,4,4a,10b-hexahydrophenanthridin], the “-log IC50” value was 7.30.

As to `COc1cc2c(cc1OC)[C@H]1CCCC[C@H]1N=C2c1ccc(N(C(C)=O)S(=O)(=O)c2ccc(C)cc2)cc1` (racemic) [Verbindung 34, (+/-)-cis-8,9-Dimethoxy-6-[(N-acetyl-4-p-toluolsulfonamido)phenyl]-1,2,3,4,4a,10b-hexahydrophenanthridin], the “-log IC50” value was 7.42.

On to `COc1cc2c(cc1OC1CCCC1)C(c1ccc(NS(=O)(=O)c3ccc(C)cc3)cc1)=N[C@@H]1CCCC[C@H]21` (racemic) [Verbindung 4, (+/-)-cis-8-Cyclopentyloxy-9-methoxy-6-(4-p-toluolsulfonamidophenyl)-1,2,3,4,4a,10bhexahydrophenanthridin], for which the “-log IC50” value stood at 6.12.

For the compound `CCOc1cc2c(cc1OCC)[C@@H]1CCCC[C@@H]1N=C2c1ccncc1.Cl.Cl` (racemic) [Verbindung 24, (+/-)-cis-8,9-Diethoxy-6-(pyrid-4-yl)-1,2,3,4,4a,10b-hexahydrophenanthridin-dihydrochlorid], the “-log IC50” value came to 8.08.

With `CCOc1cc2c(cc1OCC)[C@@H]1CCCC[C@@H]1N=C2c1ccc(OC(C)=O)cc1` (racemic) [Verbindung 13, (+/-)-cis-6-(4-Acetoxyphenyl)-8,9-diethoxy-1,2,3,4,4a,10b-hexahydrophenanthridin], the “-log IC50” value was 8.43.
